Source: patent US20230117034A1, “PYRAZOLOTRIAZINES” (Bayer Aktiengesellschaft, priority 2019, published 2023)

Each molecule was assayed against T1, CDK12 protein level in CAL-120 breast cancer cells (Homo sapiens, UniProt Q9NYV4) (assay: CDK12 protein level: Protein Simple (CDK12, CAL-120)). Settings: CAL-120 cells, 18 h with compound, CDK12/HSP90 peak area ratio vs vehicle, median, read-out: CDK12 protein level in CAL-120 breast ca cells, DC50-[mol/l] (median).
T1 construct: endogenous in cells; host or cells: CAL-120 human breast cancer cells (DSMZ ACC 459)
Assay type: cell-based
Summary of the method: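 Cells grown 24 h, then treated with compounds for 18 h at 37° C against DMSO controls. Lysates (0.4 microgramms protein) run on Protein Simple 66-440 kDa size assay with CDK12 and HSP90 loading-control antibodies. CDK12/HSP90 peak-area ratios versus vehicle gave DC50 (50% reduction) by 4-parameter fit.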

T1 sequence (Q9NYV4 whole entry): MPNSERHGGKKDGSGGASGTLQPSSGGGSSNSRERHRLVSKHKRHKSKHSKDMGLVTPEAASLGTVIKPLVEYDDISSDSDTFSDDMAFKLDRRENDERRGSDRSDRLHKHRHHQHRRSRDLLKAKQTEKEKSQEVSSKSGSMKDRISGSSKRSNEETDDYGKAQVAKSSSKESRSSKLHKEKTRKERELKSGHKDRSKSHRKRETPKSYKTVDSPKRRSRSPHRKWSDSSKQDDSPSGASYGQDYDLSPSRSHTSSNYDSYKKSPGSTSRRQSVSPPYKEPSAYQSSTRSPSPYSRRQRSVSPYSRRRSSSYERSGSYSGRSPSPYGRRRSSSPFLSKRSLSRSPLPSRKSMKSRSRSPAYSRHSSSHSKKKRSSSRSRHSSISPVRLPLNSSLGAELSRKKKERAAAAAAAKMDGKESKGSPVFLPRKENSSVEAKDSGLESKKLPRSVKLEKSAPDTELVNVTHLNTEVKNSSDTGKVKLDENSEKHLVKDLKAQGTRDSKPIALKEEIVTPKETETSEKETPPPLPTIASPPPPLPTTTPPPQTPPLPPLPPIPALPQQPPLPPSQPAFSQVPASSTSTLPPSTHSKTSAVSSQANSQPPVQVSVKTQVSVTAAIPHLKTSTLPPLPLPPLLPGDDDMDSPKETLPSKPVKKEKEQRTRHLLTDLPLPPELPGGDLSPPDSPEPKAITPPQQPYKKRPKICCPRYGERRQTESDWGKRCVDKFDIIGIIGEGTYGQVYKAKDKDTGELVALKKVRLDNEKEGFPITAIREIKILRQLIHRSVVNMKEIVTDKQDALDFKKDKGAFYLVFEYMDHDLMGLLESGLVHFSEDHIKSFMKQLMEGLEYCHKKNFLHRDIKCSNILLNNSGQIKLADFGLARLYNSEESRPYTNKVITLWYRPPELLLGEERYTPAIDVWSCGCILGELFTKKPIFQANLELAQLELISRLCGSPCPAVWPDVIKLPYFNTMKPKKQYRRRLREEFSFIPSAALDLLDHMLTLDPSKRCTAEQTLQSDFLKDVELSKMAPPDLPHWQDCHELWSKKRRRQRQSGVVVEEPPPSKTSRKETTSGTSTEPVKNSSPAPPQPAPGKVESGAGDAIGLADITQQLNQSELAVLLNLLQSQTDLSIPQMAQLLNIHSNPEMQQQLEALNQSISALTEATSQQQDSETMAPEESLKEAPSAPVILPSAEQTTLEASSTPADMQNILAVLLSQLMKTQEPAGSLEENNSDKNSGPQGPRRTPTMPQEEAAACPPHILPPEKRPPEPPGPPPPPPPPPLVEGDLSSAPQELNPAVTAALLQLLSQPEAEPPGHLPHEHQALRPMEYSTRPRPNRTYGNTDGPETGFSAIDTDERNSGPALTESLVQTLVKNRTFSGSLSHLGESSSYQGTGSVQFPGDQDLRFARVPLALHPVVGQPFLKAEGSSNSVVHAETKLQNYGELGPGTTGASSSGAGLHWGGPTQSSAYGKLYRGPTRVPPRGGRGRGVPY
T1 sequence (O75909 whole entry partner): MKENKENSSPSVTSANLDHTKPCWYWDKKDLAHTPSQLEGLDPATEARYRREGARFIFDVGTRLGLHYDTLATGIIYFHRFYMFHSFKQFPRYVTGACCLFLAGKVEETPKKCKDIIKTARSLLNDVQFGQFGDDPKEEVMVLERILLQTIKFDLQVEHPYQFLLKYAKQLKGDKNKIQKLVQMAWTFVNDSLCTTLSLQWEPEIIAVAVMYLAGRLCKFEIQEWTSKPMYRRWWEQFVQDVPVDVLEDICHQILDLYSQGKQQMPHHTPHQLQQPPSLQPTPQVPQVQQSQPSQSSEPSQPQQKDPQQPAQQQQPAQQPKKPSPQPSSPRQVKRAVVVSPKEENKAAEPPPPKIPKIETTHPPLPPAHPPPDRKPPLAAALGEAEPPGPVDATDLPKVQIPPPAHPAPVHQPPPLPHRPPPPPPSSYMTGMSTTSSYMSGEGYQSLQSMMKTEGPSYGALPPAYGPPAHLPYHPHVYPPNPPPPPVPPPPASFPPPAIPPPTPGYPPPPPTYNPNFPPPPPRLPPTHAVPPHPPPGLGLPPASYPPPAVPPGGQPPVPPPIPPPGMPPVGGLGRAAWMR

| DC50 | Structure (SMILES) |
| --- | --- |
| 10.9 nM | CC(C)c1cnn2c(NCc3ncc(-c4ccccc4)[nH]3)nc(N3CCN(C)CC3)nc12 [Example 31, 2-(4-methylpiperazin-1-yl)-N-[(5-phenyl-1H-imidazol-2-yl)methyl]-8-(propan-2-yl)pyrazolo[1,5-a][1,3,5]triazin-4-amine] |
| 44.6 nM | Cc1[nH]c(CNc2nc(N3CCOCC3)nc3c(Br)cnn23)nc1-c1ccccc1 [Example 27, 8-bromo-N-[(5-methyl-4-phenyl-1H-imidazol-2-yl)methyl]-2-(morpholin-4-yl)pyrazolo[1,5-a][1,3,5]triazin-4-amine] |
| 1.44 nM | Cc1ccnc2[nH]c(CNc3nc(N4CCOCC4)nc4c(C(C)C)cnn34)nc12 [Example 28, N-[(7-methyl-3H-imidazo[4,5-b]pyridin-2-yl)methyl]-2-(morpholin-4-yl)-8-(propan-2-yl)pyrazolo[1,5-a][1,3,5]triazin-4-amine] |
| 9.15 nM | Fc1ccc(-c2nnc(CNc3nc(N4CCOCC4)nc4c(Br)cnn34)[nH]2)cc1 [Example 29, 8-bromo-N-{[5-(4-fluorophenyl)-4H-1,2,4-triazol-3-yl]methyl}-2-(morpholin-4-yl)pyrazolo[1,5-a][1,3,5]triazin-4-amine] |
